{"source": "ChEMBL document CHEMBL2074088", "about": "“Trans-stimulation effects of folic acid derivatives on methotrexate transport by rat renal organic anion transporter, OAT-K1” (J Pharmacol Exp Ther, 2000)"}
{"target": "T1, Solute carrier organic anion transporter family member 1A3 (Rattus norvegicus, UniProt P70502)", "T1 sequence (P70502 whole entry)": "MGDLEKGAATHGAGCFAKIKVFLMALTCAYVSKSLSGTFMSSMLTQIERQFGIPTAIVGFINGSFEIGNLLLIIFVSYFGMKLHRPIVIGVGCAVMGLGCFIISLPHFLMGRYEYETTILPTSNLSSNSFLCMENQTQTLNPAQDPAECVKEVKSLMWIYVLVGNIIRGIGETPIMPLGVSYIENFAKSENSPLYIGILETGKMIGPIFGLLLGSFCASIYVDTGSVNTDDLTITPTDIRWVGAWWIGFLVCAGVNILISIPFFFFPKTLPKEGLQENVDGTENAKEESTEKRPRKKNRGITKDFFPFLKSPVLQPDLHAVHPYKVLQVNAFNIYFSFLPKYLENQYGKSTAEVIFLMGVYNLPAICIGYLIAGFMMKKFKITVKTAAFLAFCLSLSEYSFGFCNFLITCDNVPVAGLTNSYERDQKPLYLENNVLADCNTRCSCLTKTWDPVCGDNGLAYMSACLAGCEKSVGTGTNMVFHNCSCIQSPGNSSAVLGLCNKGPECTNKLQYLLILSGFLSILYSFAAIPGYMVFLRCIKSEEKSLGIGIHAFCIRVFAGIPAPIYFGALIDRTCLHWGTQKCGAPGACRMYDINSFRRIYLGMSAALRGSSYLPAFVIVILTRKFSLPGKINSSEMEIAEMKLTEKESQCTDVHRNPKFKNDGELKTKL", "assay": "TP_TRANSPORTER: inhibition of MTX uptake in OAT-K1-expressing MDCK cells", "type": "functional, cell-based", "units": {"Ki": "µM"}}
{"smiles": "Nc1nc(N)c2nc(CNc3ccc(C(=O)N[C@@H](CCC(=O)O)C(=O)O)cc3)cnc2n1", "note": "[AMINOPTERIN]", "Ki": 0.5}
{"smiles": "Nc1nc2ncc(CNc3ccc(C(=O)N[C@@H](CCC(=O)O)C(=O)O)cc3)nc2c(=O)[nH]1", "note": "[FOLIC ACID]", "Ki": 14.1}
{"smiles": "Nc1nc2c(c(=O)[nH]1)N(C=O)C(CNc1ccc(C(=O)N[C@@H](CCC(=O)O)C(=O)O)cc1)CN2", "note": "(stereo not given in full) [LEUCOVORIN]", "Ki": 8.2}
{"smiles": "CN1c2c(nc(N)[nH]c2=O)NC[C@@H]1CNc1ccc(C(=O)N[C@@H](CCC(=O)O)C(=O)O)cc1", "note": "[LEVOMEFOLIC ACID]", "Ki": 1.2}
{"smiles": "O=C1OC(c2ccc(O)c(S(=O)(=O)O)c2)(c2ccc(O)c(S(=O)(=O)O)c2)c2c(Br)c(Br)c(Br)c(Br)c21", "note": "[SULFOBROMOPHTHALEIN SODIUM]", "Ki": 21}
